test: in vitro; details: human, hela cells, % viability

Structure (SMILES) | viability at 28.5 h, 10 µM
CC(C)(C)OC(=O)N1CCC(NCc2ccccn2)CC1 [CBK304603] | 97.1%
CCc1ccc(C(O)CNC2CCN(C3CCCCC3)CC2)cc1 (stereo not shown) [CBK304604] | 88.2%
COc1ccc(CC(=O)NC(c2nnc3ccccn23)C(C)C)cc1 (stereo not shown) [CBK304607] | 89.4%
OCCn1ncc2c(NCc3nncn3-c3ccccc3)ncnc21 [CBK304608] | 98.5%
Cc1ccc(CN(Cc2ccco2)CC(O)COCc2ccco2)s1 (stereo not shown) [CBK304610] | 96.7%
Cn1cc(C2CCCCN2C(=O)c2cccc(C#N)c2)cn1 (stereo not shown) [CBK304611] | 87.9%
Cc1cnc2c(C(=O)N3CCCC3c3ccccn3)cnn2c1 (stereo not shown) [CBK304612] | 91.8%
COc1ccc(CC(=O)NCCc2nnc3ccccn23)cc1 [CBK304613] | 74.7%
COc1ccc2c(c1)c(C(=O)NCCn1nc(C)cc1C)c(C)n2C [CBK304615] | 78%
COC(=O)c1cc(S(=O)(=O)NC2CCCc3ccccc32)cn1C (stereo not shown) [CBK304616] | 98.4%
Cc1cccn2cc(CCNC(=O)N[C@H](C)C(=O)N(C)C)nc12 [CBK304617] | 110%
CN(CC(=O)Nc1sc2c(c1C#N)CCCC2)Cc1cnn(C)c1 [CBK304618] | 92.8%
CCOC(=O)N1CCN(S(=O)(=O)c2ccc3c(c2)n(C)c(=O)n3C)CC1 [CBK304620] | 86.8%
CN(CC(=O)Nc1sc2c(c1C#N)CCCCC2)Cc1cnn(C)c1 [CBK304621] | 94.3%
COc1ccc2cc(C(=O)N3CCc4[nH]c(=O)c(C#N)cc4C3)[nH]c2c1 [CBK304622] | 87.8%
CC1CCc2c(sc(NC(=O)c3cccs3)c2C#N)C1 (stereo not shown) [CBK304625] | 101%
COc1ccc(CNC(=O)C2CCCN(S(=O)(=O)c3cccs3)C2)cc1 (stereo not shown) [CBK304628] | 95.8%
CC(=O)Nc1cccc(C(=O)N2CCOC(CCc3ccccc3)C2)c1 (stereo not shown) [CBK304629] | 88.7%
O=c1cc(N2CCCC2)cnn1Cc1cscn1 [CBK304635] | 84.1%
COc1ccc(CNC(=O)c2cc(S(=O)(=O)N3CCCC3)cn2C)cc1 [CBK304637] | 95.2%
CC(C)n1cnnc1CN(C)C(=O)CCc1nc2ccccc2s1 [CBK304638] | 97%
COc1cccc(C(=O)NCCC(=O)N2CCOCC2)c1 [CBK304639] | 104%

Structure (SMILES) | viability at 28.5 h, 10 µM
O=C(Cn1nc2n(c1=O)CCCCC2)NCc1ccccc1Cl [CBK304642] | 86.6%
O=C(CCCn1cccn1)N1CCOC(c2ccc(Cl)cc2)C1 (stereo not shown) [CBK304643] | 79.1%
Cc1nn(C)c(C)c1C(=O)Nc1sc2c(c1C#N)CCC(C)C2 (stereo not shown) [CBK304645] | 54.9%
Cc1ccc(C)c(NC(=O)CCc2c(C)[nH]c3ncnn3c2=O)c1 [CBK304646] | 94.5%
O=C(Cn1nc2n(c1=O)CCCC2)NCc1ccccc1Cl [CBK304647] | 104%
CC(=O)OC1CCN(C(=O)c2cccc(C#N)c2)CC1 [CBK304648] | 93.3%
CCCN(CCC)C(=O)Cn1cnc2ccc(Cl)cc2c1=O [CBK304651] | 78.2%
CC(=O)c1cccc(NC(=O)Cn2nc(C)ccc2=O)c1 [CBK304653] | 101%
Cn1c(=O)c2c(ncn2CC(=O)NCCOc2ccccc2)n(C)c1=O [CBK304654] | 95.5%
Cn1ccnc1C(O)C1CCN(C(=O)NCCc2cccc(F)c2)CC1 (stereo not shown) [CBK304657] | 80.5%
CNS(=O)(=O)CCNC(=O)N1CCCN(Cc2ccc(F)cc2)CC1 [CBK304658] | 88.8%
Cc1nn(CC(=O)NCC(c2cccnc2)N2CCOCC2)c(C)c1Cl (stereo not shown) [CBK304659] | 118%
O=C(NCCCn1ccnn1)c1cccc(S(=O)(=O)N2CCCCC2)c1 [CBK304660] | 104%
COc1cccc(OCC(=O)NCC(c2cccs2)N2CCOCC2)c1 (stereo not shown) [CBK304664] | 91.6%
Cc1ocnc1C(=O)NCC1CCN(c2ccccc2F)C1 (stereo not shown) [CBK304671] | 92.6%
Cc1ccc(C)c(C(C)NC(=O)C2CCCN(S(C)(=O)=O)C2)c1 (stereo not shown) [CBK304672] | 96.6%
Cc1cc(C)c(CNC(=O)C2CC(=O)N(Cc3ccccn3)C2)cn1 (stereo not shown) [CBK304673] | 89.8%
COc1ccc(CCC(=O)NCC(c2cccs2)N2CCOCC2)cc1 (stereo not shown) [CBK304674] | 107%
O=C(NCCCn1ccnc1)c1cccc(S(=O)(=O)N2CCCCC2)c1 [CBK304687] | 111%
CCOC(=O)N1CCC(NS(=O)(=O)c2cc(C(=O)OC)n(C)c2)CC1 [CBK304688] | 92.3%
CCOc1cc(NC2CCN(C(=O)Cc3cc(C)on3)CC2)ncn1 [CBK304689] | 113%
O=C(CCc1ccncc1)N1CCOC(c2ccc(F)cc2F)C1 (stereo not shown) [CBK304692] | 98.3%

Structure (SMILES) | viability at 28.5 h, 10 µM
CCCC(=O)N(C)C(CO)c1cc(OC)ccc1Br (stereo not shown) [CBK304694] | 95.4%
Cc1nsc(NCc2ccccc2CN2CCC(O)CC2)c1C#N [CBK304695] | 95.1%
CC(C)Cc1nsc(NC2CCCN(c3ccn(C)n3)C2=O)n1 (stereo not shown) [CBK304696] | 91.2%
CNCC1CCN(C(=O)c2ccc(Oc3cccnc3)cc2)C1 (stereo not shown) [CBK304697] | 91.5%
Cc1c(C(=O)N(C)C2CCNC2)nnn1-c1ccc2ncccc2c1 (stereo not shown) [CBK304698] | 94.5%
COc1ccnc(N2CCC(Oc3cccnc3N(C)C)C2)n1 (stereo not shown) [CBK304699] | 92.4%
COCCc1nsc(N2CCC(N(C)c3cccnn3)CC2)n1 [CBK304701] | 94.1%
Cc1ccc(CS(=O)(=O)N2CCN(CCO)C(C)C2)c(F)c1 (stereo not shown) [CBK304702] | 105%
Cc1csc(NC(=O)CN2CCOC(c3ccc(F)cc3)C2)n1 (stereo not shown) [CBK304703] | 116%
Cc1nonc1-c1csc(CC(C)n2cc(Cl)cn2)n1 (stereo not shown) [CBK304704] | 92.2%
Cc1nc(S(=O)(=O)Cc2c(F)cccc2Cl)n(CC2CCCO2)c1C (stereo not shown) [CBK304706] | 87.9%
CC(Cc1nc(C2CC2)cs1)n1cc(Cl)cn1 (stereo not shown) [CBK304707] | 90.1%
Cc1nnnn1-c1cc(NC(=O)N(C)C(C)C)ccc1F [CBK304708] | 93.2%
Cc1nc(CN2CCN(c3cccc(C(F)(F)F)n3)CC2)cs1 [CBK304709] | 93.9%
CC(C)(C)OC(=O)N1CCCCC1(C)c1nnc(-c2cccnc2)o1 (stereo not shown) [CBK304714] | 90.2%
CC(Cc1nc(C2(Cl)CC2)cs1)n1cc(Cl)cn1 (stereo not shown) [CBK304715] | 85.5%
COCc1nc2n(n1)CC(NC(C)C(C)OCc1ccccc1)CC2 (stereo not shown) [CBK304724] | 95.8%
CCc1ccc2c(c1)C(CCNC(=O)c1ncoc1C(F)(F)F)C(=O)N2 (stereo not shown) [CBK304725] | 99.4%
Cc1nn(C)c(S(=O)(=O)N2CCOCC2c2cccc(F)c2)c1C(F)F (stereo not shown) [CBK304729] | 86.3%
CCc1ccc(C(O)CNC2CCN(Cc3cscn3)CC2)cc1 (stereo not shown) [CBK304733] | 108%
Cc1c(NC2CCN(c3ccc(C#N)cc3)C2=O)cnn1C1CCCC1 (stereo not shown) [CBK304735] | 113%
CCC(NC1CCc2nc(COC)nn2C1)C1CCC1 (stereo not shown) [CBK304739] | 87.8%

same assay, conditions: human, hela cells, % viability, bulk resorufin, single well

Structure (SMILES) | viability at 28.5 h, 10 µM
O=C(Cn1c(=O)oc2cc(Cl)ccc21)N1CCC2(CC1)OCCO2 [CBK304652] | 97%

Reference: PMC12040169 (PLOS Biology, 2025)
